Laboratory results from patent publication US20240415967A1, “DEGRADABLE NEAR-INFRARED PHOTOSENSITIZERS, PREPARATION METHODS, APPLICATIONS THEREOF” (BEIJING INSTITUTE OF COLLABORATIVE INNOVATION, priority 2021, published 2024).

Experiments:
[1] = Detection of singlet oxygen with 1,3-diphenylisobenzofuran (DPBF) capture spectrophotometry; assay type: physicochemical; settings: DPBF absorbance at 416 nm, 700 nm LED 1.25 mW/cm^2
From the text: A phosphorescence emission of singlet oxygen was easily quenched by water molecules, and the singlet oxygen generated by the target product was detected by using chemical capture spectrophotometry. 1,3-diphenylisobenzofuran (DPBF) was one of the most commonly used singlet oxygen capture agents, and 1,3-diphenylisobenzofuran reacted with the singlet oxygen rapidly to generate a colorless substance, and a content of the singlet oxygen may be reflected by detecting a variation of an absorbance of the 1,3-diphenylisobenzofuran (DPBF) at a characteristic absorption peak (416 nm) using the UV-visible absorption spectrum. An irradiation condition was a 700 nm light-emitting diode (LED) lamp of 1.25 mW/cm^2, a characteristic absorption of the 1,3-diphenylisobenzofuran (DPBF) at the characteristic absorption peak of 416 nm was gradually weakened.

[2] = system: HeLa human cervical cancer cells; assay: Medicine phototherapy at an animal level (subcutaneous tumor model); assay type: in vivo, BALB/C nude mice; settings: 0.2 mg/kg in situ injection, 2 weeks
Method: All animal experiments in the in vivo experiments were performed in strict compliance with the Chinese regulations for animal experiments using BALB/C nude mice, 5 weeks of age of the mouse, male, and a range of 16 g-25 g of body weight. Each mouse was subcutaneously inoculated with 100 uL of HeLa human cervical cancer cells in the right hind limb (5×10^6) to construct the tumor model, and the experiments were performed two weeks later.
Mice were randomly grouped by number, and the experiment was divided into an irradiation control group (including irradiation), a dark control group (including a target product; and a degradation product), and an experimental group (including target product+irradiation; and degradation product+irradiation), with six mice in each group. The dark control and experimental groups were administered by in situ injection, respectively: a dose of 0.2 mg/kg was administered, and 20 μL (0.2 mg/ml) of PBS solution of the target product or degradation product was injected in situ. After 30 min, the irradiation control and experimental groups were irradiated, and an irradiation condition was a 700 nm light-emitting diode lamp of 100 mW/cm^2, and 10 min of irradiation per mouse. The six mice were not given a light-avoidance process after therapy and were put into rearing cages to continue to feed, and every two days, a tumor volume was measured by vernier calipers and the body weight was weighed. The mice were therapized for 2 weeks.

[3] = UV-visible absorption and emission spectrum scanning (photophysical property); assay type: physicochemical; settings: light excitation, FIG. 8
Method: A UV-visible absorption spectrum scanning and an emission spectrum scanning were performed on the target product prepared in Embodiment 3, and the scanning results are shown in FIGS. 7 and 8. […] Therefore, the target product may include a deep tissue penetration depth in photodynamic therapy or in vivo fluorescence imaging.

[4] = Monitoring of self-degradation / photodegradation of the photosensitizer in solution (UV-vis, emission, HPLC); assay type: physicochemical
Method: In the test of Embodiment 7, an irradiation condition was the 700 nm light-emitting diode lamp of 1.25 mW/cm^2 for 0 min-2 min, the characteristic absorption of 1,3-diphenylisobenzofuran (DPBF) at the characteristic absorption peak of 416 nm was gradually weakened.
The target product obtained in Embodiment 3 was placed under a light-emitting diode lamp for irradiation, and an irradiation condition was 700 nm of 10 mW/cm^2, and the UV-visible absorption spectrum and an emission spectrum of the target product were recorded during irradiation.
As a control, the reference compound prepared in Embodiment 4 was placed under a light-emitting diode lamp for irradiation, the irradiation condition was 640 nm, 10 mW/cm^2, and the UV-visible absorption spectrum and the emission spectrum of the reference compound were recorded during irradiation.

[5] = Photosensitization side effects of a photosensitizer at an animal level; assay type: in vivo, BALB/C nude mice; settings: 0.2 mg/kg subcutaneous, site irradiated 10 min (700 nm target product, 640 nm reference compound, 100 mW/cm^2), then simulated natural light 10 mW/cm^2 for 1 hour
Method: All animal experiments in the in vivo experiments were performed in strict compliance with the Chinese regulations for animal experiments, using BALB/C nude mice, 5 weeks of age of the mouse, male, and a range of 16 g-25 g of body weight.
The mice were randomly grouped by number, and the experiment was divided into a target product group, a reference compound group, and an irradiation control group, with 3 mice in each group. Each of the mice was injected subcutaneously into an abdomen with 20 μL (0.2 mg/mL) of the target product, reference compound solution, or PBS solution, and an administered dose was 0.2 mg/kg. After the injection, a site of administration was irradiated, an irradiation condition of the target product was a 700 nm light-emitting diode lamp, and an irradiation condition of the reference compound was a 640 nm light-emitting diode lamp of 100 mW/cm^2, each of the mice was irradiated for 10 min, and no processing was performed in the irradiation control group. The state of the mouse was observed and a body temperature of the mouse was recorded with a thermal imager. Further, the three groups of mice were exposed to a simulated natural light of 10 mW/cm^2 and irradiated for 1 hour.

[6] = system: HeLa human cervical cancer cells; assay: Detection of cellular phototoxicity (CCK-8 cell viability); assay type: cell-based; settings: 700 nm LED 2.5 mW/cm^2 for 10 min
Method: The cells used in the experiment were HeLa human cervical cancer cells. Cell culture was performed in a DMEM complete culture medium (purchased from Genye, 500 mL) supplemented with 10% inactivated fetal bovine serum (purchased from Shuohua, 500 mL) with 1% penicillin-streptomycin (purchased from Corning, 100 mL) at a temperature of 37° C. and an atmosphere of 5% carbon dioxide.
Sub-cultured Hela cells were digested by trypsin and dispersed in the culture medium at an appropriate concentration. […]
100 μL of PBS buffer was added to each well, and an irradiation condition was a 700 nm light-emitting diode lamp of 2.5 mW/cm^2 for 10 min. […] During this process, a monosodium salt of 2-(2-methoxy-4-nitrophenyl)-3-(4-nitrophenyl)-5-(2,4-disulfonate phenyl)-2H-tetrazolium (WST-8) in the CCK-8 reagent with an electron coupling reagent may be reduced to a water-soluble yellow formazan product by living cells, which causes an absorbance of the solution at 450 nm to vary, and values of variation may be proportional to a count of living cells. The variation of the absorbance at 450 nm of each well was measured using an enzyme labeling apparatus, and a cell viability at each incubation concentration was calculated according to a formula: […]

[7] = Detection of superoxide anion free radicals with dihydroethidium (DHE) probe under irradiation; assay type: physicochemical; settings: water solution 10 μM, air atmosphere, 700 nm LED 1.25 mW/cm^2
Method: Under an air atmosphere, dihydroethidium (DHE) was added to a water solution (10 μM) of the target product prepared in Embodiment 3 as a probe of superoxide anion free radicals, and an irradiation condition was a 700 nm light-emitting diode lamp of 1.25 mW/cm^2, a fluorescence of ethidium oxide generated by an oxidation of the DHE by the superoxide radicals was detected, and a fluorescence intensity enhanced with the increase of an irradiation time.

## C[N+](C)(C)c1c(F)c(F)c(C2=C3C(=O)OC4=[N+]3[Zn]35[n]6c2ccc6-c2c(oc6c(F)c([N+](C)(C)C)c(F)c(F)c26)[N+]3=c2oc3c(F)c([N+](C)(C)C)c(F)c(F)c3c2=c2ccc([n]25)=C4c2c(F)c(F)c([N+](C)(C)C)c(F)c2F)c(F)c1F (stereo not drawn) [target product]
[1]
  generation of singlet oxygen: ability to produce singlet oxygen under irradiation
[2]; 700 nm LED 100 mW/cm^2 10 min
  body weight, with irradiation: no significant weight loss
[2]; 700 nm LED 100 mW/cm^2 10 min single irradiation
  tumor growth (tumor volume), with irradiation: effectively inhibited a growth of a subcutaneous tumor
[2]; no irradiation
  body weight, dark control: no significant weight loss
  tumor growth (tumor volume), dark control: grows rapidly
[3]
  fluorescence spectrum region: in the near-infrared region
[4]; 700 nm LED 2.5 mW/cm^2 for 0 min-10 min, FIG. 15
  photodegradation process monitored by HPLC: able to self-degrade and gradually be converted into the degradation product
[4]; 700 nm LED 10 mW/cm^2, FIGS. 29-30
  photodegradation in solution (absorption and emission spectra during irradiation): degraded under irradiation
[4]; 700 nm LED 10 mW/cm^2 for 2 min-4 min, FIG. 13
  degradation under irradiation (characteristic absorption at 440 nm and 710 nm): degraded under irradiation
[4]; FIG. 14
  photodegradation rate as a function of irradiation intensity: accelerated with the increase in irradiation intensity
[5]
  body temperature after natural light (thermal imager): no significant variation
  reactions / photosensitization side effects after natural light: did not exhibit abnormal reactions
[6]; 0 μM-4 μM, FIGS. 16-17
  cellular phototoxicity: relatively strong cellular phototoxicity under irradiation
[6]; Homo sapiens, 24 h incubation, CCK-8, read-out: half-lethal concentration IC50
  IC50: 1000 nM
[7]
  generation of superoxide anion free radicals: ability to generate the superoxide anion free radicals under irradiation
